Measured values reported in patent publication US12502338B2, “Dental glass ionomer cement” (GC Corporation, priority 2020, dated 2025).

Assay: Water solubility / water insolubility by visual observation
Type: physicochemical
Conditions: 0.4 g sample in 4 g distilled water, 20° C., 30 minutes
Procedure: As used herein and in the claims, a water-soluble compound means a compound having a solubility in water of 10 g/100 g H2O or more at 20° C.
4 g of distilled water and 0.4 g of a sample were sufficiently stirred at 20° C., allowed to stand for 30 minutes, and then visually observed. When white turbidity and biphasic separation were not observed, it was judged to be water soluble. When white turbidity or biphasic separation was observed, it was judged to be water insoluble.

Row | Compound | water solubility / water insolubility
1 | isocyanuric acid EO-modified trimethacrylate [UA-7100] | WATER-SOLUBLE
2 | C=C(C)C(=O)OCCO [HEMA, hydroxyethyl methacrylate] | WATER-SOLUBLE
3 | C=C(C)C(=O)OCCOCCOCCOC(=O)C(=C)C [TEGDMA, triethylene glycol dimethacrylate] | WATER-SOLUBLE
4 | C=C(C)C(=O)OCCOC(=O)NCCC(C)CC(C)(C)CNC(=O)OCCOC(=O)C(=C)C (centres unmarked) [UDMA, di-2-methacryloxyethyl-2,2,4-triethylhexamethylene dicarbamate] | WATER-SOLUBLE
5 | C=CC(=O)NCCO [HEAA, hydroxyethyl acrylamide] | WATER-SOLUBLE
